These are literature values, as cited in patent US9510493B2, “Mixture of hydrofluoroolefin and fluoroketone for use as an insulation and/or ARC extinguishing medium and a gas insulated medium-voltage electrical device comprising same” (priority 2011, dated 2016).

In one data set the test system is animal population. The note with it: causing death of 50% of an animal population.
In the next data set the test system is humans. Particulars: average limit concentration, 8 hours per day for 5 days per week, without noxious effect.

`O=C(C(F)(F)F)C(F)(C(F)(F)F)C(F)(F)F` [C5K, decafluoro-2-methylbutan-3-one]: the “lethal dose DL50” value in the data set on animal population is given as “more than 200 000 ppm”. For the same molecule, the “occupational exposure limit OEL” value in the data set on humans is on record as 1 000 ppm.

On to `F/C=C/C(F)(F)F` [HFO-1234ze, trans-1,3,3,3-tetrafluoro-1-propene], for which, in the data set with animal population, the “lethal dose DL50” value is > 200 000 ppm. Further, the “occupational exposure limit OEL” value with humans was 1 000 ppm.
